Experimental data taken from patent US11091476B2, “Protein kinase inhibitors, preparation method and medical use thereof” (Gan & Lee Pharmaceuticals, priority 2015, dated 2021).

Key:
CDK6/CyclinD3 = CDK6/CyclinD3 (Homo sapiens (Human), UniProt Q00534); assay: CDK kinase inhibitory activity, ADP-Glo Kinase Assay, CDK6/CyclinD3; assay type: biochemical; conditions: for CDK1/CDK6: ratio of IC50s, selectivity for CDK6 over CDK1
Protocol: (§1) Measurement of CDK kinase inhibitory activity of the compounds of this disclosure.
(§2) In vitro inhibitory effect of the compounds of the disclosure on CDK (CDK1, CDK4 and CDK6) kinase activity was tested by the following method.
(§3) 1.1 Instrument and Kit Information
(§4) 1.2 Experimental Preparation • 1.2.1 Preparation of Kinase Reaction Buffer I: The 5×Reaction Buffer A (Promega; V307A-C) provided in the kit was mixed and diluted with MILLI-Q® H2O and 0.1 M DTT (dithiothreitol) to give 4× kinase buffer, and then MILLI-Q® H2O was further added to finally formulate the solution into 1× Kinase buffer.
(§5) 1 μl of 10 mM standard substance stock solution was taken and added to 9 μl of kinase reaction buffer I and mixed well; then 90 μl of kinase reaction buffer I was added and mixed well; then 100 μl of kinase reaction buffer I was added and mixed well. The final concentration was 50 μM. • b. 40 μl of kinase reaction buffer II was added into B2 to B10 of a 96-well plate, and 50 μl of the above solution was added into B1; • c. 10 μl of solution was taken from well B1, added into B2, and mixed well; then 10 μl of the resulting solution was taken and added into B3, and dilution was carried out in sequence to B9, so as to obtain control solutions that are diluted by 5-fold sequentially. • (2) Preparation of test compound solution: • a. Test compound solutions at a certain concentration were taken, respectively, diluted with kinase reaction buffer I to a final concentration of 50 μM compound solution; • b. 40 μl of kinase reaction buffer II was added into H2 to H10 of the 96-well plate; and 50 μl of the above solution was added into H1; • c. 10 μl of solution was taken from well H1, added into H2, and mixed well; then 10 μl of the resulting solution was taken and added into H3, and dilution was carried out in sequence to H9, so as to obtain test compound solutions that are diluted by 5-fold sequentially. • 1.2.4 Preparation of a mixed solution of reaction substrate and ATP: • a. Preparation of ATP solution: • 200 μl of 0.1 mM ATP solution: 2 μl of 10 mM ATP was added to 198 μl of kinase reaction buffer I; • 300 μl of 50 μM ATP solution: 150 μl of kinase reaction buffer I was added to 150 μl of the above 0.1 mM ATP solution; • b. Preparation of 300 μl of reaction substrate solution: • 150 μl 1 μg/μl reaction substrate stock solution was added to 150 μl kinase reaction buffer I, and mixed well; • c. The above a/b solutions were mixed to obtain mixed solutions, respectively.
(§6) 1.3 Experimental process: • 1.3.1: 2 μl of compound solutions of various concentrations were taken, added to a 384-well plate, and centrifuged 3 minutes; • 1.3.2: 4 μl of kinase solution was added to each well, centrifuged at 5000 rpm and 18° C. for 10 minutes, and shaken on a plate shaker for 10 minutes; • 1.3.3: 4 μl of mixed solution of substrate and ATP was added to each well, centrifuged at 5000 rpm and 18° C. for 10 minutes, and shaken on a plate shaker at 37° C. for 90 minutes; • 1.3.4: The 384-well plate was taken out, and allowed to stand to room temperature; • 1.3.5: 10 μl of ADP-GLO™ reagent was added to each well, centrifuged at 5000 rpm and 18° C. for 18 minutes, and shaken on a plate shaker at 25° C. for 40 minutes, and then the reaction was stopped; • 1.3.6: 20 μl of kinase detection reagent was added to each well, centrifuged at 5000 rpm and 18° C. for 10 minutes, and shaken on a plate shaker at 25° C. for 30 minutes; and • 1.3.7: M1000pro MICROPLATE READER was used to read […] values.
(§7) The inhibition rate of each compound at each concentration point was calculated by the formula as follows and curve fitting was performed by GraphPad Prism 5 software to obtain the IC50 value.

CDK1/CyclinA2 = CDK1/CyclinA2 (Homo sapiens (Human), UniProt P06493); assay: CDK kinase inhibitory activity, ADP-Glo Kinase Assay, CDK1/CyclinA2; assay type: biochemical
Protocol: as §1, §2, §3, §4, §5, §6, §7

Compound | IC50 (CDK6/CyclinD3) [nM] | CDK1/CDK6 (CDK6/CyclinD3) | IC50 (CDK1/CyclinA2) [nM]
CC1=Nc2c(F)cc(-c3nc(Nc4ccc(C5CCN(C)CC5)c(C)n4)ncc3F)cc2C12CCCC2 [Example 44, N-(5-(1-methylpiperidin-4-yl)-(6-methylpyridin)-2-yl)-5-fluoro-4-(7′-fluoro-2′-methylspiro[cyclopentane-1,3′-indol]-5′-yl)pyrimidine-2-amino] | 37.5 |  | 
CCN1CCN(Cc2ccc(Nc3ncc(F)c(-c4cc(F)c5c(c4)C(C)(CC)C(C)=N5)n3)nc2)CC1 (stereo not drawn) [Example 5, 4-(3-ethyl-7-fluoro-2,3-dimethyl-3H-indol-5-yl)-N-(5-((4-ethylpiperazin-1-yl)methyl)pyridin-2-yl)-5-fluoropyrimidine-2-amino] | 7.53 | 58.23 | 439
CCN1CCN(Cc2ccc(Nc3ncc(F)c(-c4cc(F)c5c(c4)C4(CCC4)C(C)=N5)n3)nc2)CC1 [Example 4, N-(5-((4-ethylpiperazin-1-yl)methyl)pyridin-2-yl)-5-fluoro-4-(7′-fluoro-2′-methylspiro[cyclobutane-1,3′-indol]-5′-yl)aminopyrimidine-2-amino] | 2150 |  | 
CCN1CCC(c2ccc(Nc3ncc(F)c(-c4ccc5c(c4)C4(CCCC4)C(C)=N5)n3)nc2)CC1 [Example 21, N-(5-(1-ethylpiperidin-4-yl)pyridin-2-yl)-5-fluoro-4-(2′-methylspiro[cyclopentane-1,3′-indol]-5′-yl)pyrimidine-2-amino] | 27.7 | 4.89 | 135
CC1=Nc2ccc(-c3nc(Nc4ccc(C5CCN(C)CC5)cn4)ncc3F)cc2C1(C)C [Example 37, 5-Fluoro-N-(5-(1-methylpiperidin-4-yl)pyridin-2-yl)-4-(2,3,3-trimethyl-3H-indol-5-yl)pyrimidine-2-amino] | 22.9 | 3.22 | 73.7
CC1=Nc2c(F)cc(-c3nc(Nc4ccc(C5CCN(C)CC5)cn4)ncc3F)cc2C1(C)C [Example 31, 5-Fluoro-4-(7-fluoro-2,3,3-trimethyl-3H-indol-5-yl)-N-(5-(1-methylpiperidin-4-yl)pyridin-2-yl)pyrimidine-2-amino] | 58.8 |  | 
CCN1CCN(Cc2ccc(Nc3nccc(-c4cc(F)c5c(c4)C4(CCCC4)C(C)=N5)n3)nc2)CC1 [Example 8, N-(5-((4-ethylpiperazin-1-yl)methyl)pyridin-2-yl)-4-(7′-fluoro-2′-methylspiro [cyclopentane-1,3′-indol]-5′-yl)pyrimidine-2-amino] | 85.8 |  | 
CCC1(C)C(C)=Nc2c(F)cc(-c3nc(Nc4ccc5c(n4)CCN(C(=O)CO)C5)ncc3F)cc21 (stereo not drawn) [Example 39, 1-(2-((4-(3-Ethyl-7-fluoro-2,3-dimethyl-3H-indol-5-yl)-5-fluoropyrimidin-2-yl)amino)-7,8-dihydro-1,6-naphthyridine-6 (5H)-yl)-2-hydroxyacetamide] | 5.65 | 6.82 | 38.5
CC1=Nc2c(F)cc(-c3nc(Nc4ccc(N5CCN(CC6CC6)CC5)cn4)ncc3F)cc2C12CCCC2 [Example 41, N-(5-(4-(cyclopropylmethyl)piperazin-1-yl)pyridin-2-yl)-5-fluoro-4-(7′-fluoro-2′-methylspiro[cyclopentane-1,3′-indol]-5′-yl)pyrimidine-2-amino] | 76.6 |  | 
CC1=Nc2c(F)cc(-c3nc(Nc4ccc(OC5CCN(C)CC5)cn4)ncc3F)cc2C12CCCC2 [Example 45, N-(5-((1-methylpiperidin-4-yl)oxy)-pyridin-2-yl)-5-fluoro-4-(7′-fluoro-2′-methylspiro[cyclopentane-1,3′-indol]-5′-yl)pyrimidine-2-amino] | 43.9 |  | 
CCC1(C)C(C)=Nc2ccc(-c3nc(Nc4ccc(C5CCNCC5)cn4)ncc3F)cc21 (stereo not drawn) [Example 33, 4-(3-ethyl-2,3-dimethyl-3H-indol-5-yl)-5-fluoro-N-(5-(piperidin-4-yl)pyridin-2-yl)pyrimidine-2-amino] | 15.6 | 10.65 | 
CCN1CCN(c2ccc(Nc3ncc(F)c(-c4cc(F)c5c(c4)C4(CCCC4)C(C)=N5)n3)nc2)CC1 [Example 27, N-(5-(4-ethylpiperazin-1-yl)pyridin-2-yl)-5-fluoro-4-(7′-fluoro-2′-methylspiro [cyclopentane-1,3′-indol]-5′-yl)pyrimidine-2-amino] | 16.2 |  | 
CCC1(C)C(C)=Nc2ccc(-c3nc(Nc4ccc(N5CCNCC5)cn4)ncc3F)cc21 (stereo not drawn) [Example 32, 4-(3-ethyl-2,3-dimethyl-3H-indol-5-yl)-5-fluoro-N-(5-(piperazin-1-yl)pyridin-2-yl)pyrimidine-2-amino] | 10.1 | 14.01 | 
CCN1CCN(c2ccc(Nc3ncc(F)c(-c4cc(F)c5c(c4)C(C)(CC)C(C)=N5)n3)nc2)CC1 (stereo not drawn) [Example 19, 4-(3-ethyl-7-fluoro-2,3-dimethyl-3H-indol-5-yl)-N-(5-(4-ethylpiperazin-1-yl)pyridin-2-yl)-5-fluoropyrimidine-2-amino] | 65.5 | 0.99 | 
CCN1CCN(Cc2ccc(Nc3ncc(F)c(-c4cc(F)c5c(c4)C(C)(C)C(C)=N5)n3)nc2)CC1 [Example 2, N-(5-((4-ethylpiperazin-1-yl)methyl)pyridin-2-yl)-5-fluoro-4-(7-fluoro-2,3,3-trimethyl-3H-indol-5-yl)pyrimidine-2-amino] | 159 |  | 

Continued by falling IC50 (CDK6/CyclinD3), values first:

IC50 (CDK6/CyclinD3) [nM] | CDK1/CDK6 (CDK6/CyclinD3) | IC50 (CDK1/CyclinA2) [nM] | Compound
5.62 | 19.58 |  | CCC1(C)C(C)=Nc2c(F)cc(-c3nc(Nc4ccc(C5CCNCC5)cn4)ncc3F)cc21 (stereo not drawn) [Example 11]
5.13 | 21.75 |  | CCC1(C)C(C)=Nc2ccc(-c3nc(Nc4ccc(N5CCN(C)CC5)cn4)ncc3F)cc21 (stereo not drawn) [Example 34, 4-(3-ethyl-2,3-dimethyl-3H-indol-5-yl)-5-fluoro-N-(5-(4-methylpiperazin-1-yl)pyridin-2-yl)pyrimidine-2-amino]
4.53 | 11.10 | 50.3 | CC1=Nc2ccc(-c3nc(Nc4ccc(C5CCN(C)CC5)cn4)ncc3F)cc2C12CCCC2 [Example 23]
3.79 | 26.65 |  | CCN1CCN(c2ccc(Nc3ncc(F)c(-c4ccc5c(c4)C(C)(CC)C(C)=N5)n3)nc2)CC1 (stereo not drawn) [Example 36, 4-(3-ethyl-2,3-dimethyl-3H-indol-5-yl)-N-(5-(4-ethylpiperazin-1-yl)pyridin-2-yl)-5-fluoropyrimidine-2-amino]
3.15 | 26.20 | 82.4 | CCC1(CC)C(C)=Nc2c(F)cc(-c3nc(Nc4ccc(N5CCNCC5)cn4)ncc3F)cc21 [Example 29, 4-(3,3-diethyl-7-fluoro-2-methyl-3H-indol-5-yl)-5-fluoro-N-(5-(piperazin-4-yl)pyridin-2-yl)pyrimidine-2-amino]
2.33 |  |  | CCC1(C)C(C)=Nc2c(F)cc(-c3nc(Nc4ccc(CN5CCN(C)CC5)cn4)ncc3F)cc21 (stereo not drawn) [Example 42, 4-(3-ethyl-7-fluoro-2,3-dimethyl-3H-indol-5-yl)-5-fluoro-N-(5-((4-methylpiperazin-1-yl)methyl)pyridin-2-yl)pyrimidine-2-amino]
0.2 | 99.15 | 19.8 | CCC1(CC)C(C)=Nc2c(F)cc(-c3nc(Nc4ccc(C5CCN(C)CC5)cn4)ncc3F)cc21 [Example 38, 4-(3,3-diethyl-7-fluoro-2-methyl-3H-indol-5-yl)-5-fluoro-N-(5-(1-methylpiperidin-4-yl)pyridin-2-yl)pyrimidine-2-amino]
